Assay results from patent publication US5432058A, “Method for measuring human cholesterol absorption using metabolically stable isotopes” (priority 1992, dated 1995).
Where “and” joins values, the source holds several entries; their conditions need not be identical. Identical values can stand only once. Like-named read-outs stand apart in the source and are kept apart here.

What was measured:
[1] = parameters: species or system rabbits; conditions: rabbit, in vivo
Experimental: [26,26,26,27,27,27]-^2 H-cholesterol shown if FIG. 2 was prepared by Dr. Eric Stohler of Biodesign, Inc. The deuterium in the labeled cholesterol is located on stable terminal methyl groups of the side chain. When both: ^13 C-cholesterol and ^2 H-cholesterols were given intravenously or orally to rabbits there was no change in the plasma ratio of the two cholesterols over one week.

[2] = Preparation of Intralipid infusate: filter passage and residual tracer in syringe and lines; assay type: physicochemical
Experimental: (§1) [23,24,25,26,27]-^13 C-cholesterol suitable for intra venous administration was prepared in a laminar flow hood. The labeled cholesterol was dissolved at 5 mg/ml in USP ethanol in a sterile container, water was added to 10% by volume in order to increase virucidal activity, and the solution was allowed to stand at room temperature for at least 6 hrs. The solvents were then sterilely removed and the cholesterol residue dissolved at 20 mg/ml in ethanol and passed through a 0.22 micron solvent-resistant filter. Aliquots were tested for sterility and dried aliquots for pyrogenicity using the Limulus assay, and the stock was kept frozen at -70° C. On the day of the experiment both the ^13 C-cholesterol and a small amount of 10% Intralipid were warmed to 37° C. and the ethanolic cholesterol was added dropwise to 4 volumes of Intralipid. After 5 minutes at 37° C. and 15 min. at room temperature the mixture was put through a 0.8 micron particulate filter. More than 94% of the labeled cholesterol passed through the filter. An aliquot containing approximately 15 mg. ^13 C-cholesterol was drawn into atared syringe and weighed. The syringe contents were injected over 5 minutes into a running saline infusion and the syringe was washed several times with saline.

[3] = Dual stable isotope cholesterol absorption study in healthy subjects (oral and intravenous tracers, plasma tracer ratio by GC/MS on day 3); assay type: in vivo, human; conditions: for Fa at 72 h: human, in vivo, po, 30 mg
Experimental: There is a paucity of information concerning cholesterol absorption in humans, and one prominent reason for this deficiency is the need to administer long-lived radioactive cholesterol tracers. To eliminate this hazard, we have developed a procedure, based on that of Zilversmit (Prof. Soc. Exp. Med. Biol. 140:862-865, 1972), employing stable isotopic tracers of cholesterol. One metabolically stable cholesterol tracer is administered orally and a second metabolically stable cholesterol tracer is administered intravenously on day 0. The ratio of the two tracers is determined after equilibration on about day 3 by gas chromatography-mass spectrometry (GC/MS) with selected ion monitoring. Ion current peaks corresponding to the first and second tracers are corrected for spillover From each other and from endogenous cholesterol. Percent cholesterol absorption is calculated as the ratio of the cholesterol tracers. The use of stable cholesterol isotopes for the study of cholesterol absorption is feasible, precise, safe and allows broad application of cholesterol absorption measurements in humans including women and children, thereby Facilitating clinical genetic studies in groups about which little current data is available.
There is a waiting period after the cholesterol tracers of this invention have been administered to a human subject. The waiting period allows the ingested cholesterol tracer to reach equilibrium in the subject's blood. The waiting period can range from 12 hours to about 5 days or more. However, it is preferred that the waiting period is from about 24 hours to about 96 hours. Following the waiting period, a blood sample is withdrawn from the subject and analyzed by GC/MS techniques to determine the relative amount of the two cholesterol tracers and the natural cholesterols in the sample. The GC/MS data is corrected to provide the actual relative amounts of the cholesterol tracers in the blood sample and a cholesterol absorption percentage is calculated based upon the amount of cholesterol tracers introduced into the body in relation to the amount in the blood samples.
Five healthy subjects (three men and two women, age 22-34) underwent two cholesterol absorption studies separated by 4-6 weeks. Out patient subjects received a National Cholesterol Education Program step I diet prepared in the metabolic kitchen of the Washington University Clinical Research Center for five days. Starting two days before testing and ending three days after testing. The metabolically stable cholesterols were given on day 0 with a meal containing 240 ml of whole milk as a source of fat to assure contraction of the gallbladder.
as §1, with “saline. […]” for “saline.”

[4] = humans, background; cited from earlier work

SMILES	change in the plasma ratio of the two cholesterols [1]	labeled cholesterol passed through the filter ([2]; ethanolic cholesterol in 4 volumes of 10% Intralipid, 0.8 micron particulate filter)	solubilization of cholesterol ([2]; with use of Intralipid)	tracer cholesterol found in the syringe and intravenous lines ([2]; with use of Intralipid)	Fa at 72 h ([3]; mean of five healthy subjects, test 1, read-out: mean cholesterol absorption, Test 1) [%]	Fa at 72 h ([3]; mean of five healthy subjects, test 2, 4-6 weeks later, read-out: mean cholesterol absorption, Test 2) [%]	Fa at 72 h ([3]; test 1, five healthy subjects, read-out: cholesterol absorption, range between subjects) [%]	cholesterol absorption, Test 1 ([3]; individual subjects 1-5, oral ^2 H-cholesterol about 30 mg, i.v. ^13 C-cholesterol about 15 mg, plasma at three days, 4320 min)	cholesterol absorption, Test 2 ([3]; individual subjects 1-5, second study 4-6 weeks after Test 1, plasma at three days, 4320 min)	mean cholesterol absorption, Test 1 ([3]; mean of five healthy subjects, test 1, 4320 min) [%]	percent of cholesterol absorbed [4]
[2H]C([2H])([2H])C(CCC[C@@H](C)[C@H]1CC[C@H]2[C@@H]3CC=C4C[C@@H](O)CC[C@]4(C)[C@H]3CC[C@]12C)C([2H])([2H])[2H] [^2 H-cholesterol, [26,26,26,27,27,27]-^2 H-cholesterol]	no change	–	–	–	–	–	–	–	–	–	–
C[C@H](C[13CH2][13CH2][13CH]([13CH3])[13CH3])[C@H]1CC[C@H]2[C@@H]3CC=C4C[C@@H](O)CC[C@]4(C)[C@H]3CC[C@]12C [^13 C-cholesterol, [23,24,25,26,27]-^13 C-cholesterol]	no change	More than 94%	quantitatively solubilized	less than 0.4%	–	–	–	–	–	–	–
CC(C)CCC[C@@H](C)[C@H]1CC[C@H]2[C@@H]3CC=C4C[C@@H](O)CC[C@]4(C)[C@H]3CC[C@]12C [cholesterol]	–	–	–	–	59.3 ± 8.4	57.6 ± 8.2	47 to 71	59.4% and 62.2% and 70.5% and 47.4% and 57.1%	62.4% and 58.0% and 67.2% and 45.4% and 55.0%	59	15% to 75
